Reference: patent US8513271B2, “Pyrimidine compounds as delta opioid receptor modulators” (Janssen Pharmaceutica, NV, priority 2009, dated 2013)
Like-named read-outs stand apart in the source and are kept apart here.

Columns and labels:
[1] = biological target: hMOR (mu opioid receptor) (Homo sapiens, UniProt P35372); experiment: [35S]GTPγS binding assays in CHO-hMOR cell membranes (mu opioid functional assay); type: biochemical; details: for inhibition at 10 µM: read-out: GTPγS μ-opioid receptor % Inh @10 μM
Sequence of hMOR (mu opioid receptor) (P35372 whole entry, looked up): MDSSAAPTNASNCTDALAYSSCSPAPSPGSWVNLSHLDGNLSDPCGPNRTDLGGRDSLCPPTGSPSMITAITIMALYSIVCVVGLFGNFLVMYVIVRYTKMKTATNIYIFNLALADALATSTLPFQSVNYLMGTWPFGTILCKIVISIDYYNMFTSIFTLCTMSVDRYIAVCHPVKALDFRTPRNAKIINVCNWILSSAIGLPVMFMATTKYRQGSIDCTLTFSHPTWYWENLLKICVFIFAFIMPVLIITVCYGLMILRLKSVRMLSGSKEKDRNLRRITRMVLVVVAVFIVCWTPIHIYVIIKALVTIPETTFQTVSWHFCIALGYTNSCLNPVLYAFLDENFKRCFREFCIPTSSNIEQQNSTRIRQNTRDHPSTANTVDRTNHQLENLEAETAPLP

delta opioid receptor [2] = biological target: T1, delta opioid receptor (Mus musculus, UniProt P32300); experiment: [35S]GTPγS binding assay in NG108-15 cell membranes (delta opioid functional assay), 200 nM screen; type: biochemical; details: for EC50 / GTPγS δ-opioid receptor Rel Efficacy / GTPγS δ-RelEfficacy @200 nM: NG108-15 cell membranes; for EC50 / GTPγS δ-RelEfficacy @200 nM: averages if tested more than once; for GTPγS δ-opioid receptor Rel Efficacy: relative efficacy from dose response; for GTPγS δ-RelEfficacy @200 nM: 200 nM test compound, relative to calculated max of SNC80 dose response curve
T1 construct: NG108-15 cell membranes were purchased from Applied Cell Sciences (Rockville, Md.); host or cells: NG108-15 cell membranes
T1 sequence (P32300 whole entry): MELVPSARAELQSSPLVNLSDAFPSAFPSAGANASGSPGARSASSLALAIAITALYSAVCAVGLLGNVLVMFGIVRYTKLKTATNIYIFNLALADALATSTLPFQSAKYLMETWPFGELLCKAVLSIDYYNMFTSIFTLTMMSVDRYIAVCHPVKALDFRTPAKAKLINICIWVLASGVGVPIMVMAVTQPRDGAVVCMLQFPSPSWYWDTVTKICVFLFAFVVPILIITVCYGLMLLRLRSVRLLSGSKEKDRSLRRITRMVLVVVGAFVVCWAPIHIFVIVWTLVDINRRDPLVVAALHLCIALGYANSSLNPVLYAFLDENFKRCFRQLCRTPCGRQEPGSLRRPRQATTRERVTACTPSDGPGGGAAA

delta opioid receptor [3] = biological target: T1, delta opioid receptor; experiment: NG108-15, 24-well delta opioid receptor binding assay
mu opioid receptor = biological target: T2, mu opioid receptor (Rattus norvegicus, UniProt P33535); experiment: Rat brain mu opioid receptor binding assay; details: rat forebrain, [3H]DAMGO ligand
T2 construct: the forebrains were homogenized in Tris buffer in a Teflon®-glass homogenizer; from tissue; host or cells: forebrain of male Wistar rats, particulate (membrane) preparation
T2 sequence (P33535 whole entry): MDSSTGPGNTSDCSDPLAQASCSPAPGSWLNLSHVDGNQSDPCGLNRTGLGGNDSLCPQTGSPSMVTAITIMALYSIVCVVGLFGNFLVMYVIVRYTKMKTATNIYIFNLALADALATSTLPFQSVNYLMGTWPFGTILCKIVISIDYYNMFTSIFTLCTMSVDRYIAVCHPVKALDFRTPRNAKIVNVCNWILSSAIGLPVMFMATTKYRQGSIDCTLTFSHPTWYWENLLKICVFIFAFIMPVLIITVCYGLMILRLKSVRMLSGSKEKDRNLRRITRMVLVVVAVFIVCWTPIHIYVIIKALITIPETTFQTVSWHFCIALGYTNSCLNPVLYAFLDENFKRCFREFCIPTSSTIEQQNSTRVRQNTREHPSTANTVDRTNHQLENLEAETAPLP

delta opioid receptor [4] = biological target: T3, delta opioid receptor (Rattus norvegicus, UniProt P33533); experiment: Rat brain delta opioid receptor binding assay; details: rat forebrain, [3H]naltrindole ligand; read-out: δ-binding (Naltrindole ligand) Ki
T3 construct: the forebrains were homogenized in Tris buffer in a Teflon®-glass homogenizer; from tissue; host or cells: forebrain of male Wistar rats, particulate (membrane) preparation
T3 sequence (P33533 whole entry): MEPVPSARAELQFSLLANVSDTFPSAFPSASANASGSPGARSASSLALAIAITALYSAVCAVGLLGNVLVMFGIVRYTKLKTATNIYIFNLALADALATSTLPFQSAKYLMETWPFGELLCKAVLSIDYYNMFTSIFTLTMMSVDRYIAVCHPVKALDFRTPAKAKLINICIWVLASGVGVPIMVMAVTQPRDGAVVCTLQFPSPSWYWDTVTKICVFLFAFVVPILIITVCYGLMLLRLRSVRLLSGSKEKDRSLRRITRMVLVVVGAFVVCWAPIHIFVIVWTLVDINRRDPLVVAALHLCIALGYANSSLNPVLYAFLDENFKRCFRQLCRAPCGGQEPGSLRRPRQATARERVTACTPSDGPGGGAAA

[5] = GTPγS δ-opioid receptor EC50 (μM)
[6] = read-out: GTPγS δ-opioid receptor EC50
[7] = [3H]Naltrindole ligand, NG108-15 cell membranes, read-out: δ-binding NG108 cell membrane Ki

## COc1ccc(Oc2nc(-c3cncc(OC)c3)ncc2N2CC[C@@H](N)C2)cc1 [Cpd 349]
[1]
  inhibition at 10 µM: 0%
Delta opioid receptor [2]; [5]
  EC50: 0.082 µM
Delta opioid receptor [2]
  GTPγS δ-opioid receptor Rel Efficacy: 0.929

## COc1ccc(Oc2nc(-c3cncc(C#N)c3)ncc2NC[C@H]2C[C@H](N)C2)cc1 [Cpd 301]
Delta opioid receptor [2]; [5]
  EC50: 0.087 µM
Delta opioid receptor [2]
  GTPγS δ-opioid receptor Rel Efficacy: 1.085
Delta opioid receptor [3]
  Ki: 0.5 nM
Mu opioid receptor; μ-binding Ki
  Ki: 658 nM

## Fc1cncc(-c2ncc(NC[C@@H]3CCCN3)c(Oc3ccc(OCC(F)(F)F)cc3)n2)c1 [Cpd 124]
Delta opioid receptor [4]
  Ki: 126 nM
Delta opioid receptor [3]
  Ki: 0.3 nM

## COc1ccc(Oc2nc(-c3cncc(OC)c3)ncc2N[C@H]2CCCNC2)cc1 [Cpd 245]
[1]
  inhibition at 10 µM: 4.26%
Delta opioid receptor [2]; [5]
  EC50: 0.0127 µM
Delta opioid receptor [2]
  GTPγS δ-opioid receptor Rel Efficacy: 1.095

## COc1ccc(Oc2nc(-c3cncc(SC)c3)ncc2N2CCCNCC2)cc1 [Cpd 347]
[1]
  inhibition at 10 µM: -0.404%
Delta opioid receptor [2]; [5]
  EC50: 0.069 µM
Delta opioid receptor [2]
  GTPγS δ-opioid receptor Rel Efficacy: 0.898

## COc1ccc(Oc2nc(-c3cncc(SC)c3)ncc2N2CCNCC2)cc1 [Cpd 341]
[1]
  inhibition at 10 µM: 0%
Delta opioid receptor [2]; [5]
  EC50: 0.041 µM
Delta opioid receptor [2]
  GTPγS δ-opioid receptor Rel Efficacy: 0.788

## N#Cc1cncc(-c2ncc(NC[C@@H]3CCCN3)c(Oc3ccc(CO)cc3)n2)c1 [Cpd 143]
Delta opioid receptor [2]; [6]
  EC50: 0.69 µM
Delta opioid receptor [2]
  GTPγS δ-opioid receptor Rel Efficacy: 1.066
Delta opioid receptor [3]; [7]
  Ki: 1 nM

## OCc1ccc(Oc2nc(-c3cncnc3)ncc2NC[C@@H]2CCCN2)cc1 [Cpd 144]
Delta opioid receptor [2]
  GTPγS δ-RelEfficacy @200 nM: 0.191
Delta opioid receptor [3]
  Ki: 7 nM

## O=C(c1cccc(Oc2nc(-c3cccnc3)ncc2NC[C@@H]2CCCN2)c1)N1CCCC1 [Cpd 166]
Delta opioid receptor [2]
  GTPγS δ-RelEfficacy @200 nM: 0.169
Delta opioid receptor [3]
  Ki: 27 nM

## COc1ccc(Oc2nc(-c3cncnc3)ncc2NC2CC(N)C2)cc1 (stereo not drawn) [Cpd 304]
Delta opioid receptor [2]
  GTPγS δ-RelEfficacy @200 nM: 0.228
Delta opioid receptor [3]
  Ki: 2 nM

## CC(C)Oc1ccc(Oc2nc(-c3cncnc3)ncc2NC[C@@H]2CCCN2)cc1 [Cpd 140]
Delta opioid receptor [2]
  GTPγS δ-RelEfficacy @200 nM: 0.137
Delta opioid receptor [3]; [7]
  Ki: 8 nM

## N#Cc1ccc(Oc2nc(-c3cccnc3)ncc2NC[C@@H]2CCCN2)cc1 [Cpd 136]
Delta opioid receptor [2]; [6]
  EC50: 9 µM
Delta opioid receptor [2]
  GTPγS δ-opioid receptor Rel Efficacy: 0.789
Delta opioid receptor [3]; [7]
  Ki: 7 nM

## Cc1ccc(Oc2nc(-c3cccnc3)ncc2NC[C@@H]2CCCN2)cc1 [Cpd 149]
Delta opioid receptor [2]
  GTPγS δ-RelEfficacy @200 nM: 0.403
  GTPγS δ-opioid receptor Rel Efficacy: 1.026
Delta opioid receptor [2]; [6]
  EC50: 0.236 µM
Delta opioid receptor [3]; [7]
  Ki: 1 nM

## CC(C)Oc1ccc(Oc2nc(-c3cncc(C#N)c3)ncc2NC[C@@H]2CCCN2)cc1 [Cpd 139]
Delta opioid receptor [2]; [6]
  EC50: 2.27 µM
Delta opioid receptor [2]
  GTPγS δ-opioid receptor Rel Efficacy: 1.118
Delta opioid receptor [3]; [7]
  Ki: 2 nM

## COCc1ccc(Oc2nc(-c3cncc(C#N)c3)ncc2NC[C@@H]2CCCN2)cc1 [Cpd 153]
Delta opioid receptor [2]
  GTPγS δ-RelEfficacy @200 nM: 0.454
  GTPγS δ-opioid receptor Rel Efficacy: 1.120
Delta opioid receptor [2]; [6]
  EC50: 0.193 µM
Delta opioid receptor [3]; [7]
  Ki: 1 nM

## COc1ccc(Oc2nc(-c3cccnc3)ncc2N[C@H]2CCNC2)cc1 [Cpd 237]
[1]; 10 μM, CHO-hMOR cell membranes, inhibition of agonist-stimulated GTPγS binding
  GTPγS μ-opioid receptor % Inh @10 μM: 3.524%

## Cc1ccc(Oc2nc(-c3cncnc3)ncc2NC[C@@H]2CCCN2)cc1 [Cpd 148]
Delta opioid receptor [2]
  GTPγS δ-RelEfficacy @200 nM: 0.411
  GTPγS δ-opioid receptor Rel Efficacy: 1.052
Delta opioid receptor [2]; [6]
  EC50: 0.158 µM
Delta opioid receptor [3]; [7]
  Ki: 1 nM

## COCc1ccc(Oc2nc(-c3cncnc3)ncc2NC[C@@H]2CCCN2)cc1 [Cpd 154]
Delta opioid receptor [2]
  GTPγS δ-RelEfficacy @200 nM: 0.164
Delta opioid receptor [3]
  Ki: 9 nM

## O=C(c1cccc(Oc2nc(-c3cccnc3)ncc2NC[C@@H]2CCCN2)c1)N1CCCCC1 [Cpd 167]
Delta opioid receptor [2]
  GTPγS δ-RelEfficacy @200 nM: 0.328
Delta opioid receptor [3]; [7]
  Ki: 21 nM

## N#Cc1cncc(-c2ncc(NC[C@@H]3CCCN3)c(Oc3ccc(F)cc3)n2)c1 [Cpd 146]
Delta opioid receptor [2]; [6]
  EC50: 0.387 µM
Delta opioid receptor [2]
  GTPγS δ-opioid receptor Rel Efficacy: 1.197
Delta opioid receptor [3]; [7]
  Ki: 0.4 nM

## CSc1ccc(Oc2nc(-c3cncc(C#N)c3)ncc2NC[C@@H]2CCCN2)cc1 [Cpd 150]
Delta opioid receptor [2]
  GTPγS δ-RelEfficacy @200 nM: 0.801
  GTPγS δ-opioid receptor Rel Efficacy: 1.093
Delta opioid receptor [2]; [5]
  EC50: 0.033 µM
Delta opioid receptor [3]
  Ki: 0.3 nM

## Clc1ccc(Oc2nc(-c3cncnc3)ncc2NC[C@@H]2CCCN2)cc1 [Cpd 130]
Delta opioid receptor [2]
  GTPγS δ-RelEfficacy @200 nM: 0.245
Delta opioid receptor [3]; [7]
  Ki: 2 nM

## OCc1ccc(Oc2nc(-c3cccnc3)ncc2NC[C@@H]2CCCN2)cc1 [Cpd 145]
Delta opioid receptor [2]; [6]
  EC50: 4.02 µM
Delta opioid receptor [2]
  GTPγS δ-opioid receptor Rel Efficacy: 1.180
Delta opioid receptor [3]; [7]
  Ki: 5 nM

## COCc1ccc(Oc2nc(-c3cccnc3)ncc2NC[C@@H]2CCCN2)cc1 [Cpd 155]
Delta opioid receptor [2]
  GTPγS δ-RelEfficacy @200 nM: 0.170
Delta opioid receptor [3]
  Ki: 5 nM

## Fc1cncc(-c2ncc(NC[C@@H]3CCCN3)c(Oc3ccc(Cl)cc3)n2)c1 [Cpd 128]
Delta opioid receptor [2]; [6]
  EC50: 0.453 µM
Delta opioid receptor [2]
  GTPγS δ-opioid receptor Rel Efficacy: 1.144
Delta opioid receptor [3]; [7]
  Ki: 0.4 nM

## COc1ccc(-c2ncc(NC[C@@H]3CCCN3)c(Oc3ccc(O)cc3)n2)cn1 [Cpd 59]
Delta opioid receptor [4]
  Ki: 0.954 nM
Delta opioid receptor [2]; [6]
  EC50: 0.433 µM
Delta opioid receptor [2]; read-out: GTPγS δ-opioid receptor % Inh @10 μM
  inhibition at 10 µM: 1.48%
Delta opioid receptor [2]
  GTPγS δ-opioid receptor Rel Efficacy: 1.0063
Delta opioid receptor [3]; [7]
  Ki: 1.54 nM
Mu opioid receptor; read-out: μ-binding Ki
  Ki: 1610 nM

## COc1ccc(Oc2nc(-c3cncnc3)ncc2NCC2COCCN2)cc1 (racemic) [Cpd 278]
Delta opioid receptor [4]
  Ki: 999 nM
Delta opioid receptor [2]
  GTPγS δ-RelEfficacy @200 nM: 0.263
Delta opioid receptor [3]; [7]
  Ki: 1.64 nM

## Cc1ccc(Oc2nc(-c3cncc(C#N)c3)ncc2NC[C@@H]2CCCN2)cc1 [Cpd 147]
Delta opioid receptor [2]; [5]
  EC50: 0.051 µM
Delta opioid receptor [2]
  GTPγS δ-opioid receptor Rel Efficacy: 1.077
Delta opioid receptor [3]
  Ki: 0.4 nM
Mu opioid receptor; μ-binding Ki
  Ki: 438 nM

## COc1ccc(Oc2nc(-c3cncnc3)ncc2NC[C@@H]2CCCN2)cc1F [Cpd 133]
Delta opioid receptor [2]
  GTPγS δ-RelEfficacy @200 nM: 0.755
  GTPγS δ-opioid receptor Rel Efficacy: 1.041
Delta opioid receptor [2]; [6]
  EC50: 0.028 µM
Delta opioid receptor [3]; [7]
  Ki: 0.4 nM

## FC(F)(F)COc1ccc(Oc2nc(-c3cncnc3)ncc2NC[C@@H]2CCCN2)cc1 [Cpd 123]
Delta opioid receptor [2]
  GTPγS δ-RelEfficacy @200 nM: 0.653
  GTPγS δ-opioid receptor Rel Efficacy: 1.124
Delta opioid receptor [2]; [6]
  EC50: 0.057 µM
Delta opioid receptor [3]; [7]
  Ki: 0.4 nM

## O=C(c1cccc(Oc2nc(-c3cccnc3)ncc2NC[C@@H]2CCCN2)c1)N1CCOCC1 [Cpd 168]
Delta opioid receptor [2]
  GTPγS δ-RelEfficacy @200 nM: 0.300
Delta opioid receptor [3]; [7]
  Ki: 50 nM

## COc1ccc(Oc2nc(-c3cncnc3)ncc2NC[C@H]2C[C@H](N)C2)cc1 [Cpd 302]
Delta opioid receptor [2]
  GTPγS δ-RelEfficacy @200 nM: 0.393
Delta opioid receptor [3]; [7]
  Ki: 1 nM

## Oc1ccc(Oc2nc(-c3cncnc3)ncc2NC[C@@H]2CCCN2)cc1 [Cpd 156, 4-{5-[(Pyrrolidin-2-(S)-ylmethyl)-amino]-[2,5]bipyrimidinyl-4-yloxy}-phenol]
Delta opioid receptor [2]; [6]
  EC50: 0.177 µM
Delta opioid receptor [3]
  Ki: 1 nM
